Assay results as given in patent US20240261306A1, “FORMULATIONS OF PSILOCYBIN” (CYBIN IRL LIMITED, priority 2021, published 2024).
Marks after values point to notes of the source that are not given here.

Experiments:
[1] = XRPD and mDSC characterization of spray dried solid dispersions (t=0); format: physicochemical; conditions: Characterization (t = 0)
Description: X-ray power diffraction (XRPD): XRPD patterns were collected on a Bruker AXS D2 diffractometer using Cu Kα radiation (30 kV, 10 mA), θ-θ geometry, using a LynxEye detector from 5-42° […].
The details of the data collection are: • Angular range: 5 to 42° 2θ • Step size: 0.024° 2θ • Collection time: 0.1 seconds per step.
Samples were run under ambient conditions and prepared as flat plate specimens using powder without grinding. Approximately 1-2 mg of the sample was lightly pressed on a silicon wafer to obtain a flat surface.
Modulated differential scanning calorimetry (mDSC): TOPEM® is a temperature modulated DSC method which differs from conventional DSC in allowing the total heat flow to be separated into reversing and non-reversing heat flow components. Such techniques help distinguish between processes or transitions that overlap or lie very close to one another. The glass transition temperature (Tg) was determined from the reversible heatflow component.
TOPEM® DSC data were collected on a Mettler DSC 3+ equipped with a 34 position auto-sampler. The instrument was calibrated for energy and temperature using certified indium. Typically, 3-5 mg of each sample, in a pin-holed aluminium pan, was heated at 2 K·min^−1 from 30° C. to 220° C. with a pulse height of 0.64 K and a pulse width 15-30 sec. A nitrogen purge at 50 mL·min^−1 was maintained over the sample. […]

[2] = XRPD of freeze-dried solid dispersions and admixtures; format: physicochemical; conditions: as prepared, solid form of psilocybin (PY) in freeze-dried dispersion, physical mixture or starting material
Description: The samples were prepared in silicon low background holders using light manual pressure to keep the sample surface flat and level with the reference surface of the sample holder. The single crystal Si low background holder has a circular recess (10 mm diameter and about 0.2 mm depth) that holds the sample.
The Rigaku Smart-Lab diffraction system used was configured for Bragg-Brentano reflection geometry using a line source X-ray beam. The Bragg-Brentano geometry was controlled by passive divergence and receiving slits with the sample itself acting as the focusing component for the optics. The figures were created using PlotMon V2.1.1.0.
High-resolution XRPD analysis was performed using Rigaku Smart-Lab diffraction system configured for Debye-Scherrer transmission geometry. The Debye-Scherrer convergent beam geometry utilizes a curved x-ray mirror to focus the incident beam through the sample and onto the detector plane. The axial divergence of the X-ray beam was controlled by 5.0° Soller slits in both the incident and diffracted beam paths.
Freeze-dried solid dispersions of Examples 1-5, and corresponding Reference Examples, were characterized using X-ray powder diffraction (XRPD).

SMILES | XRPD [1] | Tg ([1]; mDSC) [°C] | XRPD Results [2] | XRPD Results ([2]; listed as crystalline psilocybin starting material)
CN(C)CCc1c[nH]c2cccc(OP(=O)(O)O)c12 [Psilocybin (PY), 3-(2-(dimethylamino)ethyl)-1H-indol-4-yl dihydrogen phosphate] | Amorphous | 161 | – | –
CN(C)CCc1c[nH]c2cccc(OP(=O)(O)O)c12 [Crystalline PY starting material, 3-(2-(dimethylamino)ethyl)-1H-indol-4-yl dihydrogen phosphate] | – | – | crystalline PY (methanol solvate)^a | crystalline psilocybin methanol solvate with a small quantity of Form B
